Consider four compounds from patent US12358919B2, “Antibacterial compounds” (Universita' degli Studi di Siena, priority 2019, dated 2025).

The subject of experiment [1] is Acinetobacter baumannii ATCC 17978. The experiment is described as follows: microbe, parasite or virus in culture. The settings on record: for Potentiation fold: ratio MICcompound/MICcompound+polymyxin E; for MIC in presence of colistin: with 0.25xMIC polymyxin E1 (0.25 mg/L); for MIC: Acinetobacter baumannii, ATCC17978. The format is cell-based. As for the experimental part:
(§1) Growth inhibition or killing of bacteria was investigated using conventional methods widely described in the scientific literature. Parameters such as the Minimum Inhibitory Concentration (MIC) were determined as described in Clinical Laboratory Standard Institute (CLSI) document M07 “Methods for Dilution Antimicrobial Susceptibility Tests for Bacteria That Grow Aerobically, 11th Edition” (2018). Synergistic activity of the compounds described in the present specification were determined by measuring the variation of the MIC's compound in the absence and presence of a sub-inhibitory concentration of a suitable antibacterial agent, such as polymyxin E1. Furthermore, the Fractional Inhibitory Concentrations (FICs) were measured using a chequerboard analysis to determine the average FIC index (FICI), whose value is known to characterize the interaction between two compounds and/or drugs (≤0.5, synergistic interaction; >0.5 and <2, no interaction, additive effect; ≥2, antagonistic interaction). Furthermore, the selectivity of the compounds was investigated by measuring their cytotoxic effect on mammalian cell lines (e.g. HeLa cells).
(§2) Several methods were used to investigate the synergistic activity of the compounds, including (a) the determination of the MIC in the presence of a sub-inhibitory concentration of a suitable antibacterial agent, (b) the determination of the average FICI using a chequerboard analysis and (c) the time-kill curve analysis of a suitable agent (at a sub-inhibitory concentration) in the absence and presence of the pyrazolo[4,3-b]pyridin-6-carboxamide compound at a fixed concentration of 2 or 8 mg/L.
(§3) The MIC of the compound was determined alone and in the presence of a fixed and sub-inhibitory concentration of a suitable antibacterial agent of the polymyxin class, such as polymyxin E1 (colistin). The potentiation fold was computed as the ratio MICcompound/MICcompound+polymyxin E. Tested organisms included Escherichia coli CCUG^TKlebsiella pneumoniae ATCC 13833 and Acinetobacter baumannii ATCC 17978, which show a colistin MIC of 0.5, 0.5 and 1 mg/L, respectively.

In experiment [2] the test system is Escherichia coli CCUG^T. The experiment can be described thus: microbe, parasite or virus in culture. The experiment is classed as cell-based. The settings on record: for Potentiation fold: ratio MICcompound/MICcompound+polymyxin E; for MIC in presence of colistin: with 0.25xMIC polymyxin E1 (0.12 mg/L); for MIC: Escherichia coli. The protocol: as §1, §2, §3
Experiment [3] has as its system Klebsiella pneumoniae ATCC 13833. The experiment can be described thus: microbe, parasite or virus in culture. The note with it: for Potentiation fold: ratio MICcompound/MICcompound+polymyxin E; for MIC in presence of colistin: with 0.25xMIC polymyxin E1 (0.12 mg/L); for MIC: Klebsiella pneumoniae, ATCC13833. The format is cell-based. The protocol: as §1, §2, §3
The subject of experiment [4] is E. coli CCUG^T. The experiment can be described thus: Chequerboard analysis with polymyxin E1 (average FIC index). The format is cell-based, Escherichia coli. The note with it: compound + polymyxin E1.
The test system of experiment [5] is K. pneumoniae ATCC 13833. Described as above. The settings on record: compound + polymyxin E1. The format is cell-based, Klebsiella pneumoniae.
Experiment [6] relates to Bacillus subtilis ATCC 6633. The experiment can be described thus: MIC, broth microdilution (direct antibacterial activity). The note with it: ATCC6633. The experiment is classed as cell-based. As for the experimental part: as §1
(§4) The MIC values were determined using the broth microdilution method as described in document M07 using Mueller-Hinton broth as culture medium and an initial bacterial inoculum size of 5×10^5 CFU/mL, with a final volume of 100 μL per well in a 96-well microplate. Bacterial strains were Bacillus subtilis ATCC 6633, Enterococcus faecalis ATCC 29212, Streptococcus pyogenes ATCC 12344 and Staphylococcus aureus ATCC 25923. The tested compound concentration ranged from 512 to 0.25 mg/L. Plates were incubated for 18-24 hours at 35±2° C. prior to results analysis.
(In general: Broth dilution looks for growth in wells or tubes with falling amounts of substance.)

Experiment [7] concerns Enterococcus faecalis ATCC 29212. Described as above. The format is cell-based. The note with it: ATCC29212. As for the experimental part: as §1, §4
Experiment [8] deals with Staphylococcus aureus ATCC 25923. The experiment is described as above. The format is cell-based. The settings on record: ATCC25923. As for the experimental part: as §1, §4
Experiment [9] concerns Streptococcus pyogenes ATCC 12344. The description is as above. The format is cell-based. The settings on record: ATCC12344. The protocol: as §1, §4
The subject of experiment [10] is A. baumannii ATCC 17978. The experiment can be described thus: Chequerboard analysis with polymyxin E1 (average FIC index). The experiment is classed as cell-based, Acinetobacter baumannii. The note with it: compound + polymyxin E1.
Experiment [11] deals with K. pneumoniae SI-4B. Described as above. The format is cell-based, Klebsiella pneumoniae. The note with it: K. pneumoniae SI-4B (colistin-resistant); compound + polymyxin E1.
The test system of experiment [12] is polymyxin E1-resistant Acinetobacter baumannii (strain N50) clinical isolate. The experiment is classed as cell-based. The note with it: A. baumannii N50; colistin alone. As for the experimental part:
as §1
“Chequerboard” method was used to further investigate the synergistic activity of pyrazolo[4,3-b]pyridin-6-carboxamides when this compounds are combined with polymyxin E1. […]

Experiment [13] concerns Acinetobacter baumannii (N50 strain), multidrug-resistant clinical isolate resistant to polymyxin E1. The experiment can be described thus: Time-kill curve analysis (bactericidal activity). The experiment is classed as cell-based. The note with it: polymyxin E1 2 mg/L alone; inoculum 10^5 CFU/mL. The protocol: FIG. 1: bactericidal activity on Acinetobacter baumannii (N50 strain) of polymyxin E1, 2 mg/L (square); polymyxin E1, 2 mg/L+compound Ib 32 mg/L (triangles); control (circles).
as §2
The kinetics of bacterial killing offers an additional mean to characterize the antibacterial activity of compounds, also in combination with other antimicrobial agents. Compounds or a combination thereof are defined as bactericides when the viable bacterial load is decreased by at least 3 log10 (EUCAST, cit.).
This analysis was carried with a multidrug-resistant Acinetobacter baumannii clinical isolate showing resistance to polymyxin E1. The time-kill curves were generated starting from a bacterial inoculum of 10^5 CFU/mL. Bacterial count was determined at several time intervals in the absence (control) or presence of 2 mg/L polymyxin E1 (corresponding to the resistance breakpoint, EUCAST, cit.) supplemented with 32 mg/L of compound Ib (FIG. 1).

Experiment [14] deals with K. pneumoniae SI-27. The experiment is described as follows: Chequerboard analysis with polymyxin E1 (average FIC index). The experiment is classed as cell-based, Klebsiella pneumoniae. The settings on record: K. pneumoniae SI-27 (colistin-resistant); compound + polymyxin E1.

Read-outs that look alike come from different tables or passages of the source. Where a SMILES comes first, the peptide text is derived from it. Bridges are numbered along the chain shown (N, C = ends). [ ]: non-standard residue; d: D form. The star is where a group is joined. X1 = CC[C@H](C)CCCCC(=O)*; Dab = NCC[C@H](N)C(=O)O

On to `CCCCn1c2c(c(O)c(C(=O)NC34CC5CC(CC(C5)C3)C4)c1=O)N(CCO)NC2` [Ip, N-(Adamantan-1-yl)-4-(1-butyl)-4,5-dihydro-7-hydroxy-1-(2-hydroxyethyl)-5-oxo-2H-pyrazolo[4,3-b]pyridin-6-carboxamide], for which the Potentiation fold in experiment [1] (A. baumannii ATCC 17978) is listed as ≥16; in [2] (E. coli CCUG^T), ≥16; in experiment [3] (K. pneumoniae ATCC 13833) it was ≥32. Moreover, the “MIC in presence of colistin” value in experiment [1] (A. baumannii ATCC 17978) stood at 32 µg/mL; in experiment [2] (E. coli CCUG^T), 32 µg/mL; in [3] (K. pneumoniae ATCC 13833), 16 µg/mL. The MIC was > 512 µg/mL in experiment [1] (A. baumannii ATCC 17978, compound alone, read-out: MIC); > 512 µg/mL in [2] (E. coli CCUG^T, compound alone, read-out: MIC); > 512 µg/mL in experiment [3] (K. pneumoniae ATCC 13833, compound alone, read-out: MIC). Further, the “Average FIC index” value stood at 0.33 in experiment [4] and 0.32 in experiment [5].
On to `CC(C)n1c(=O)c(C(=O)NC23CC4CC(CC(C4)C2)C3)c(O)c2nn(C)cc21` [Ix, N-(Adamantan-1-yl)-4,5-dihydro-7-hydroxy-2-methyl-5-oxo-4-(2-propyl)-2H-pyrazolo[4,3-b]pyridin-6-carboxamide], for which the MIC is 64 µg/mL in experiment [6]; 32 µg/mL in experiment [7]; 128 µg/mL in [8]; 32 µg/mL in [9]; > 512 µg/mL in experiment [1]; > 512 µg/mL in experiment [2]. Also, in experiment [3], the MIC was > 512 µg/mL. Further, the Potentiation fold in experiment [1] (A. baumannii ATCC 17978), in experiment [2] (E. coli CCUG^T) and in experiment [3] (K. pneumoniae ATCC 13833) was ≥64 each time. Further, the “MIC in presence of colistin” value in experiment [1] (A. baumannii ATCC 17978), in [2] (E. coli CCUG^T) and in [3] (K. pneumoniae ATCC 13833) was 8 µg/mL in each case. The results for the “Average FIC index” value in experiment [5], in experiment [10] and in experiment [11] were 0.33, 0.27 and 0.39, respectively.
In the case of `CC[C@H](C)CCCCC(=O)N[C@@H](CCN)C(=O)N[C@H](C(=O)N[C@@H](CCN)C(=O)N[C@H]1CCNC(=O)[C@H]([C@@H](C)O)NC(=O)[C@H](CCN)NC(=O)[C@H](CCN)NC(=O)[C@H](CC(C)C)NC(=O)[C@@H](CC(C)C)NC(=O)[C@H](CCN)NC1=O)[C@@H](C)O` [colistin, polymyxin E1, reference compound] (X1-[Dab]T[Dab][Dab][Dab][dL]L[Dab][Dab]T; lactam 4-C (inferred); N-terminus assumed), the “colistin MIC” value turned out to be 1 µg/mL in experiment [1] (Acinetobacter baumannii ATCC 17978, colistin alone); 0.5 µg/mL in [2] (Escherichia coli CCUG^T, colistin alone); 0.5 µg/mL in experiment [3] (Klebsiella pneumoniae ATCC 13833, colistin alone). Further, the “MIC Colistin” value in experiment [12] is 8 µg/mL. In [13], the “bactericidal activity (killing of the bacterial population)” value was “unable to achieve complete and irreversible killing of the bacterial population”.
Consider `CCCCn1c(=O)c(C(=O)NC23CC4CC(CC(C4)C2)C3)c(O)c2nn(CCO)cc21` [Im, N-(Adamantan-1-yl)-4-(1-butyl)-4,5-dihydro-7-hydroxy-2-(2-hydroxyethyl)-5-oxo-2H-pyrazolo[4,3-b]pyridin-6-carboxamide], for which the Potentiation fold in experiment [1] (A. baumannii ATCC 17978) and in experiment [3] (K. pneumoniae ATCC 13833) was ≥64 throughout. The “MIC in presence of colistin” value in experiment [1] (A. baumannii ATCC 17978) and in experiment [3] (K. pneumoniae ATCC 13833) was 8 µg/mL each time. Moreover, the MIC in experiment [1], in [2] and in [3] was > 512 µg/mL throughout. In addition, the “Average FIC index” value in experiment [11] turned out to be 0.31; in [14] it was 0.41.
